Data from US9221832B2, “Heterocyclic amide derivatives as P2X7 receptor antagonists” (ACTELION PHARMACEUTICALS LTD., priority 2011, dated 2015).

What follows are molecules tested against human recombinant P2X7 receptor (Homo sapiens (Human), UniProt Q99572) (assay: YO-PRO assay: P2X7 receptor antagonistic activity). Conditions: HEK cells expressing human P2X7.
Sequence of human recombinant P2X7 receptor (Q99572 whole entry): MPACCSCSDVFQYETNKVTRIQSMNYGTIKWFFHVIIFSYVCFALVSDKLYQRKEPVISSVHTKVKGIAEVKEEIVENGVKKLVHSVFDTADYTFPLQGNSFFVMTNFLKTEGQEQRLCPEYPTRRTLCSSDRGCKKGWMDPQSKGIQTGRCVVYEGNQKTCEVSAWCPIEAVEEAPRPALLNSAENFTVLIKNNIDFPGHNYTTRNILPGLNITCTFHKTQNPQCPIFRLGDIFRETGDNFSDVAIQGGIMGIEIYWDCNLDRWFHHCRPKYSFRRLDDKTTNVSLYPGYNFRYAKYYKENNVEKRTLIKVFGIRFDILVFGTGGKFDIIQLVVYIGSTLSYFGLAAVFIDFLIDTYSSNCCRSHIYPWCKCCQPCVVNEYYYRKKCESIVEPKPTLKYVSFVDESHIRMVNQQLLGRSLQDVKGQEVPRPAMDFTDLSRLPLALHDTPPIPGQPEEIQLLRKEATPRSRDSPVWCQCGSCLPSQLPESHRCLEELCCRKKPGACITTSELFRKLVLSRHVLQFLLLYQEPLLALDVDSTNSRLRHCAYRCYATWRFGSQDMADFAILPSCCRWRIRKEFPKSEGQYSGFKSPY
Assay type: cell-based
Protocol: The P2X7 receptor antagonistic activity of the compounds of formula (I) is determined in accordance with the following experimental method.
Cell Line Generation and YO-PRO Assay
Cell line generation was performed in general according to established molecular cloning protocols. Specifically, RNA was extracted from human whole blood using the Qiagen RNeasy kit (Qiagen, CH) according to the manufacturer's instructions. Subsequently cDNA was made (Superscript II, Invitrogen AG, CH) and the human P2X7 gene (genbank ref. BC011913) was amplified with the following primers: […] and […]. The amplified sequence was subsequently ligated into a pcDNA3.1 (+) NotI, NheI digested plasmid. […] Following a 24 h exposure to DNA, cells were trypsinized and re-seeded at low density in the presence of 250 μg Geneticin. Geneticin resistant cells were then selected during two consecutive rounds of cloning by serial limiting dilution with visual inspection. Individual clones were screened for P2X7 expression by applying ATP and recording the resultant uptake of YO-PRO1. Specific cell clones were chosen based on RNA and protein expression. HEK cells stably expressing P2X7 were used to screen drugs using the YO-PRO1 assay. Cells were grown to confluency in adherent culture at 37° C. in a humidified 5% CO2 incubator (split 1/5 every 3-4 days with DMEM, 10% FCS, 1% Penicillin/Streptomycin, 250 μg/ml Geneticin). Adherent cells were detached by incubation with Trypsine (1 ml per 165 cm^2 dish) for 2 minutes, then washed off with 10 ml PBS (without Mg^2+ and Ca^2+), and resuspended in DMEM, 10% FCS, 1% Penicillin/Streptomycin, no Geneticin. […] During this time period, four time points were taken. Each time point comprised the average of several measurements made within a few seconds. […] The FLIPR tetra was equipped with Molecular Devices Screen Works system control software to define and run experimental protocols. […] For IC50 measurements the maximum intensity is plotted against the concentration of compound to determine IC50 values.
Work on `O=C(NC1CCOc2ncccc21)C1(c2ccc(Cl)cc2Cl)CC1` (racemic) [Example 58, rac-1-(2,4-Dichloro-phenyl)-cyclopropanecarboxylic acid (3,4-dihydro-2H-pyrano[2,3-b]pyridin-4-yl)-amide] yielded an IC50 of 294 nM. With `O=C(NC1CCOc2ncccc21)C1(c2ccc(F)cc2Cl)CCCC1` (racemic) [Example 59, rac-1-(2-Chloro-4-fluoro-phenyl)-cyclopentanecarboxylic acid (3,4-dihydro-2H-pyrano[2,3-b]pyridin-4-yl)-amide] the IC50 was 390 nM. `O=C(Cc1cccnc1Cl)NC1CCOc2ncccc21` (racemic) [Example 60, rac-2-(2-Chloro-pyridin-3-yl)-N-(3,4-dihydro-2H-pyrano[2,3-b]pyridin-4-yl)-acetamide] gave an IC50 of 780 nM. Molecule `Cc1ccc(OCC(=O)NC2CCOc3ncccc32)c(C)n1` (racemic) [Example 61, rac-N-(3,4-Dihydro-2H-pyrano[2,3-b]pyridin-4-yl)-2-(2,6-dimethyl-pyridin-3-yloxy)-acetamide] has an IC50 of 814 nM. `Cc1cc(CC(=O)NC2CCOc3ncccc32)on1` (racemic) [Example 62, rac-N-(3,4-Dihydro-2H-pyrano[2,3-b]pyridin-4-yl)-2-(3-methyl-isoxazol-5-yl)-acetamide] gave an IC50 of 2080 nM. `Cc1ccnn1CC(=O)NC1CCOc2ncccc21` (racemic) [Example 63, rac-N-(3,4-Dihydro-2H-pyrano[2,3-b]pyridin-4-yl)-2-(5-methyl-pyrazol-1-yl)-acetamide] was tested, and the IC50 was > 5720 nM. Molecule `O=C(CCc1ccc(Cl)cc1Cl)NC1CCOc2ncccc21` (racemic) [Example 65, rac-3-(2,4-Dichloro-phenyl)-N-(3,4-dihydro-2H-pyrano[2,3-b]pyridin-4-yl)-propionamide] has an IC50 of 3010 nM. Work on `O=C(Cc1c(F)ccc(Cl)c1Cl)NC1COc2ncccc21` (racemic) [Example 67, rac-2-(2,3-Dichloro-6-fluoro-phenyl)-N-(2,3-dihydro-furo[2,3-b]pyridin-3-yl)-acetamide] yielded an IC50 of 210 nM. For `O=C(Cc1c(F)cccc1C(F)(F)F)NC1COc2ncccc21` (racemic) [Example 68, rac-N-(2,3-Dihydro-furo[2,3-b]pyridin-3-yl)-2-(2-fluoro-6-trifluoromethyl-phenyl)-acetamide], the IC50 was 1830 nM. `O=C(Cc1c(F)cc(Cl)cc1Cl)NC1CCOc2ncccc21` (racemic) [Example 70, rac-2-(2,4-Dichloro-6-fluoro-phenyl)-N-(3,4-dihydro-2H-pyrano[2,3-b]pyridin-4-yl)-acetamide] was tested, and the IC50 was 386 nM. Molecule `O=C(Cc1c(C(F)(F)F)ccc(Cl)c1Cl)NC1COc2ncccc21` (racemic) [Example 71, rac-2-(2,3-Dichloro-6-trifluoromethyl-phenyl)-N-(2,3-dihydro-furo[2,3-b]pyridin-3-yl)-acetamide] has an IC50 of 3230 nM. `O=C(Cc1c(Cl)ccc(C(F)(F)F)c1Cl)NC1COc2ncccc21` (racemic) [Example 72, rac-2-(2,6-Dichloro-3-trifluoromethyl-phenyl)-N-(2,3-dihydro-furo[2,3-b]pyridin-3-yl)-acetamide] was tested, and the IC50 was 1020 nM. `N#Cc1cccc(CC(=O)NC2COc3ncccc32)c1Cl` (racemic) [Example 75, rac-2-(2-Chloro-3-cyano-phenyl)-N-(2,3-dihydro-furo[2,3-b]pyridin-3-yl)-acetamide] showed an IC50 of 22 nM. In the case of `O=C(Cc1c(F)cc(Cl)cc1Cl)NC1COc2ncccc21` (racemic) [Example 76, rac-2-(2,4-Dichloro-6-fluoro-phenyl)-N-(2,3-dihydro-furo[2,3-b]pyridin-3-yl)-acetamide], the IC50 is reported as 90 nM. In the case of `O=C(Cc1c(Cl)ccc(Cl)c1F)NC1COc2ncccc21` (racemic) [Example 77, rac-2-(3,6-Dichloro-2-fluoro-phenyl)-N-(2,3-dihydro-furo[2,3-b]pyridin-3-yl)-acetamide], the IC50 is reported as 2480 nM. For `O=C(Cc1c(F)ccc(F)c1Cl)NC1COc2ncccc21` (racemic) [Example 78, rac-2-(2-Chloro-3,6-difluoro-phenyl)-N-(2,3-dihydro-furo[2,3-b]pyridin-3-yl)-acetamide], the IC50 was 665 nM. `NC(=O)c1cccc(CC(=O)NC2COc3ncccc32)c1Cl` (racemic) [Example 80, rac-2-Chloro-3-[(2,3-dihydro-furo[2,3-b]pyridin-3-ylcarbamoyl)-methyl]-benzamide] showed an IC50 of 1240 nM. Molecule `O=C(CCCc1ccc(F)cc1)NC1COc2ncccc21` (racemic) [Example 82, rac-N-(2,3-Dihydro-furo[2,3-b]pyridin-3-yl)-4-(4-fluoro-phenyl)-butyramide] has an IC50 of 2030 nM. For `O=C(Cc1cccc(C(F)(F)F)c1Cl)NC1COc2cnccc21` (racemic) [Example 87, rac-2-(2-Chloro-3-trifluoromethyl-phenyl)-N-(2,3-dihydro-furo[2,3-c]pyridin-3-yl)-acetamide], the IC50 was 4.6 nM. Work on `O=C(Cc1ccc(C(F)(F)F)cc1Cl)NC1COc2ncccc21` (racemic) [Example 88, rac-2-(2-Chloro-4-trifluoromethyl-phenyl)-N-(2,3-dihydro-furo[2,3-b]pyridin-3-yl)-acetamide] yielded an IC50 of 72 nM. Work on `Cc1cc(Cl)cc(Cl)c1CC(=O)NC1COc2cnccc21` (racemic) [Example 89, rac-2-(2,4-Dichloro-6-methyl-phenyl)-N-(2,3-dihydro-furo[2,3-c]pyridin-3-yl)-acetamide] yielded an IC50 of 3.2 nM. With `O=C(Cc1cccc(C(F)(F)F)c1F)NC1COc2ncccc21` (racemic) [Example 90, rac-N-(2,3-Dihydro-furo[2,3-b]pyridin-3-yl)-2-(2-fluoro-3-trifluoromethyl-phenyl)-acetamide] the IC50 was 92 nM. Molecule `N#Cc1ccc(CC(=O)NC2COc3ncccc32)c(Cl)c1` (racemic) [Example 96, rac-2-(2-Chloro-4-cyano-phenyl)-N-(2,3-dihydro-furo[2,3-b]pyridin-3-yl)-acetamide] has an IC50 of 123 nM. `O=C(Cc1cccc(Cl)c1C(F)(F)F)NC1COc2ncccc21` (racemic) [Example 97, rac-2-(3-Chloro-2-trifluoromethyl-phenyl)-N-(2,3-dihydro-furo[2,3-b]pyridin-3-yl)-acetamide] showed an IC50 of 15 nM. `Cc1nccc2c1OCC2NC(=O)Cc1ccc(Cl)cc1Cl` (racemic) [Example 100, rac-2-(2,4-Dichloro-phenyl)-N-(7-methyl-2,3-dihydro-furo[2,3-c]pyridin-3-yl)-acetamide] showed an IC50 of 52 nM. For `O=C(Cc1c(Cl)cc(Cl)cc1CO)NC1COc2ncccc21` (racemic) [Example 103, rac-2-(2,4-Dichloro-6-hydroxymethyl-phenyl)-N-(2,3-dihydro-furo[2,3-b]pyridin-3-yl)-acetamide], the IC50 was 16 nM. For `O=C(Cc1ccc(Cl)cc1Cl)NC1COc2c1ccnc2C1CC1` (racemic) [Example 104, rac-N-(7-Cyclopropyl-2,3-dihydro-furo[2,3-c]pyridin-3-yl)-2-(2,4-dichloro-phenyl)-acetamide], the IC50 was 71 nM. `COc1nccc2c1OCC2NC(=O)Cc1ccc(Cl)cc1Cl` (racemic) [Example 105, rac-2-(2,4-Dichloro-phenyl)-N-(7-methoxy-2,3-dihydro-furo[2,3-c]pyridin-3-yl)-acetamide] gave an IC50 of 248 nM. With `O=C(Cc1ccc(Cl)cc1Cl)NC1COc2c1ccnc2Cl` (racemic) [Example 106, rac-N-(7-Chloro-2,3-dihydro-furo[2,3-c]pyridin-3-yl)-2-(2,4-dichloro-phenyl)-acetamide] the IC50 was 52 nM. `N#Cc1c(F)ccc(CC(=O)NC2COc3ncccc32)c1Cl` (racemic) [Example 107, rac-2-(2-Chloro-3-cyano-4-fluoro-phenyl)-N-(2,3-dihydro-furo[2,3-b]pyridin-3-yl)-acetamide] showed an IC50 of 31 nM. `O=C(Cc1cccc(OC(F)(F)F)c1Cl)NC1COc2ncccc21` (racemic) [Example 108, rac-2-(2-Chloro-3-trifluoromethoxy-phenyl)-N-(2,3-dihydro-furo[2,3-b]pyridin-3-yl)-acetamide] was tested, and the IC50 was 71 nM. With `Cc1cc(Cl)cc(Cl)c1CC(=O)NC1COc2nnccc21` (racemic) [Example 110, rac-2-(2,4-Dichloro-6-methyl-phenyl)-N-(5,6-dihydro-furo[2,3-c]pyridazin-5-yl)-acetamide] the IC50 was 6.7 nM. `CC(=O)c1cccc(CC(=O)NC2COc3ncccc32)c1Cl` (racemic) [Example 111, rac-2-(3-Acetyl-2-chloro-phenyl)-N-(2,3-dihydro-furo[2,3-b]pyridin-3-yl)-acetamide] showed an IC50 of 416 nM. `N#Cc1c(Cl)ccc(CC(=O)NC2COc3ncccc32)c1Cl` (racemic) [Example 112, rac-2-(2,4-Dichloro-3-cyano-phenyl)-N-(2,3-dihydro-furo[2,3-b]pyridin-3-yl)-acetamide] gave an IC50 of 219 nM. `N#Cc1cccc(CC(=O)NC2COc3ncccc32)c1C(F)(F)F` (racemic) [Example 113, rac-2-(3-Cyano-2-trifluoromethyl-phenyl)-N-(2,3-dihydro-furo[2,3-b]pyridin-3-yl)-acetamide] was tested, and the IC50 was 28 nM.
